Experiment [1] concerns the target EGFR WT (Homo sapiens (Human), UniProt P00533). Description: TR-FRET assay for ERBB kinases. Type of experiment: biochemical. Conditions: geometric mean if measured more than once. On the procedure: (§1) TR-FRET Assay for ERBB Kinases
(§2) All compounds and PROTACs were serially diluted in three-fold increments using 100% DMSO, followed by an intermediate 10-fold dilution using Buffer A (50 mM HEPES, pH 7.5, 50 mM NaCl, 10 mM MgCl2, 1 mM DTT, and 0.1% Pluronic F-68). […] Next, 10 uL of protein kinase in Buffer A was added to each well of the assay plate and pre-incubated with compound for 10 minutes. Kinase reactions were then initiated by addition of 5 uL substrate mix containing 3 mM ATP and 30 uM fluorescein-labeled Poly-GluTyr (Thermo Fisher, #PV3610) in Buffer A and allowed to proceed for 10 minutes at room temperature. Reactions were quenched by addition of a 5 uL mixture containing 5 nM LanthaScreen® Tb-pY20 Antibody (Thermo Fisher, #PV3552) and 40 mM EDTA in Buffer A. Assay plates were then read using a Synergy2 (Biotek Instruments, Winooski, Vt.) via excitation thru a 340/20 nm bandpass filter and emission collected thru 490/10 nm (donor) and 520/25 nm (acceptor) bandpass filters.

In experiment [2] the target is EGFR L858R/T790M/C797S (Homo sapiens (Human), UniProt P00533, C797S/L858R/T790M). Description: TR-FRET assay for ERBB kinases. Type of experiment: biochemical. Conditions: geometric mean if measured more than once. On the procedure: as §1, §2
In general terms: Time-resolved FRET reads energy transfer from a long-lived donor to a nearby acceptor.

Experiment [3] deals with EGFR L858R/T790M (Homo sapiens (Human), UniProt P00533, L858R/T790M). Nature of the experiment: TR-FRET assay for ERBB kinases. It is filed as biochemical. The note with it: geometric mean if measured more than once. The protocol:
as §1, §2

In experiment [4] the target is EGFR L858R/T790M/C797S triple mutant (H520*) (Homo sapiens (Human), UniProt P00533, C797S/L858R/T790M). Nature of the experiment: EGFR protein degradation assay (Western blot). It is filed as cell-based. The note with it: 72 hours, 300 nM to 10 nM. On the procedure:
EGFR Protein Degradation assay
Cells were incubated overnight at 37° C., 5% CO2 prior to compound addition. A 10 mM compound stock in DMSO was serially diluted in DMSO to provide the following stock concentrations: 1, 0.3, 0.1, 0.03 and 0.01 mM. An appropriate volume of each compound dilution, together with a DMSO vehicle control, was added to media to provide a 2× compound solution. […] At the end of the compound treatment, cells were washed once with ice-cold phosphate-buffered saline (PBS) and treated with lysis solution (1× lysis buffer, Cell Signaling Technologies (CST #9803) supplemented with Piarce™ protease inhibitors, #A32953, Thermo Fisher Scientific, TFS). Lysates were collected and clarified of cell debris by spinning at 10K rpm for 10 minutes. A specific volume of supernatant was retrieved for protein quantification (Pierce™ BCA kit, TFS #23225) and for Western analysis. Loading buffer supplemented with EDTA and reducing agent was added to each supernatant. A specific volume of supernatant (determined by protein assay: […] loaded per sample) was loaded into a NuPAGE™ 4-12% Bis-Tris gel (TFS). Samples were run at 165V in MOPS running buffer for 2 hours and then transferred to PVDF blotting membrane using a dry blotting system (iBlot2, TFS). Membranes were blocked in Tris-buffered saline supplemented with Tween, 0.1% (TBST) containing 5% non-fat dry milk, (AmericanBio). Following block, membranes were washed once with TBST. […] Membranes were washed 3× with TBST prior to addition of secondary antibody (1:10 000, anti-rabbit HRP-linked, CST #7074) in TBST with 3% BSA and then incubated at room temperature for one hour. Membranes were then washed 3× with TBS and signal developed by exposure to developer (SuperSignal West Femto, TFS) for 5 minutes. Membranes were then immediately imaged using a BioRad Chemidoc.
On the technique in general: Immunoblotting shows a protein as a band on a membrane.

The target in experiment [5] is EGFR Exon20NPG (Homo sapiens (Human), UniProt P00533, INS770NPG). Nature of the experiment: TR-FRET assay for ERBB kinases. Type of experiment: biochemical. Conditions: geometric mean if measured more than once. On the procedure:
as §1
All compounds and PROTACs were serially diluted in three-fold increments using 100% DMSO, followed by an intermediate 10-fold dilution using Buffer A (50 mM HEPES, pH 7.5, 50 mM NaCl, 10 mM MgCl2, 1 mM DTT, and 0.1% Pluronic F-68). Two microliters of serially diluted compound or PROTAC were then transferred to black 384-well Proxiplates (PerkinElmer, #6008260) using an Integra Viaflo96. Next, 10 uL of protein kinase in Buffer A was added to each well of the assay plate and pre-incubated with compound for 10 minutes. Kinase reactions were then initiated by addition of 5 uL substrate mix containing 3 mM ATP and 30 uM fluorescein-labeled Poly-GluTyr (Thermo Fisher, #PV3610) in Buffer A and allowed to proceed for 10 minutes at room temperature. Reactions were quenched by addition of a 5 uL mixture containing 5 nM LanthaScreen® Tb-pY20 Antibody (Thermo Fisher, #PV3552) and 40 mM EDTA in Buffer A. Assay plates were then read using a Synergy2 (Biotek Instruments, Winooski, Vt.) via excitation thru a 340/20 nm bandpass filter and emission collected thru 490/10 nm (donor) and 520/25 nm (acceptor) bandpass filters.

pIC50: −log10 of the molar value. Some results are limits rather than exact numbers.

By pIC50 is commonly meant the IC50 on a negative log10 scale, so that one unit is a factor of ten.

Sequence of EGFR Exon20NPG (P00533 other isoform, or with tags, fused parts or gaps del 1-694/ins NPG behind 770 limits assumed): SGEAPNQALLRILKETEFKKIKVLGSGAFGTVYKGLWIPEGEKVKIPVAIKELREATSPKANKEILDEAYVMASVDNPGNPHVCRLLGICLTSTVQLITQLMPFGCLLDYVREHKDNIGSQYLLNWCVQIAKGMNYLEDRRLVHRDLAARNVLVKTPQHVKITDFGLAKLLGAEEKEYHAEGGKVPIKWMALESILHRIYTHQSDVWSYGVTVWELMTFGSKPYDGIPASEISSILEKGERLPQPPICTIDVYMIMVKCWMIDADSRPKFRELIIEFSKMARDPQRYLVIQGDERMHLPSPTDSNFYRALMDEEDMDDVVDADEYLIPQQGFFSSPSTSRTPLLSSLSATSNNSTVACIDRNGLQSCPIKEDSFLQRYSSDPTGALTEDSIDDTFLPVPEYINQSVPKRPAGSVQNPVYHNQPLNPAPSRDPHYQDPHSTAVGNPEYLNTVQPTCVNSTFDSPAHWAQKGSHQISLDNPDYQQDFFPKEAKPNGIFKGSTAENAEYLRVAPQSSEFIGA
Sequence of EGFR L858R/T790M/C797S (P00533 25-1210 T790M/C797S/L858R): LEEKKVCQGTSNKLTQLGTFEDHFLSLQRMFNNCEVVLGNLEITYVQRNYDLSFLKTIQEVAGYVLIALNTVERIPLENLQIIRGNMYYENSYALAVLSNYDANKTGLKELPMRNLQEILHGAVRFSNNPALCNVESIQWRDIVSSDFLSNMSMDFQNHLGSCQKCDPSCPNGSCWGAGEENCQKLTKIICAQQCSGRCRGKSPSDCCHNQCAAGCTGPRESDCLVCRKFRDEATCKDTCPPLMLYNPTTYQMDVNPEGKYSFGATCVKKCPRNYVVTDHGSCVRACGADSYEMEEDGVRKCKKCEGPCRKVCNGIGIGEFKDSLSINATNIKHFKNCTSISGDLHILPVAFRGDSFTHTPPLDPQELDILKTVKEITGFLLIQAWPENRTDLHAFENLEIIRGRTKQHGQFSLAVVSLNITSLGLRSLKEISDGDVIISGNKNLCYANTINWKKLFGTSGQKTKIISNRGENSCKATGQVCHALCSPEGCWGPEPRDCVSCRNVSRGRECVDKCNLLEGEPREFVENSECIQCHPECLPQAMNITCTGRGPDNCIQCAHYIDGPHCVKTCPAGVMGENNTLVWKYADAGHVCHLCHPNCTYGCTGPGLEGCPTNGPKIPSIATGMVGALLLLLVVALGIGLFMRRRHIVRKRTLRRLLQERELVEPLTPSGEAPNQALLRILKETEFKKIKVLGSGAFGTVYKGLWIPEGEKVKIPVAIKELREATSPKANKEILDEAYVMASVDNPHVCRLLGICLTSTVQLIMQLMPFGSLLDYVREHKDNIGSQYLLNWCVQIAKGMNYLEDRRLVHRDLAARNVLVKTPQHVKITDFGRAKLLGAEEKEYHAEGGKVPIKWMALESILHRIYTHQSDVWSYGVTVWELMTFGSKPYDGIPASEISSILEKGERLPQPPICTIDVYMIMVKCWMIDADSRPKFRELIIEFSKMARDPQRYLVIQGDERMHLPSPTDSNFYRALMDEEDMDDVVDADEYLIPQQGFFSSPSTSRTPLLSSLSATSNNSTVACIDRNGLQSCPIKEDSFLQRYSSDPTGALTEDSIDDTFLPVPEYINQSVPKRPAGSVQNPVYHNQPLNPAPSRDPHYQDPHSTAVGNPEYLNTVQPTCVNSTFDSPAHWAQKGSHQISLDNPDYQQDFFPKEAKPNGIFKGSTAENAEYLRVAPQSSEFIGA
Sequence of EGFR L858R/T790M/C797S triple mutant (H520*) (P00533 25-1210 T790M/C797S/L858R): as above
Sequence of EGFR WT (P00533 25-1210): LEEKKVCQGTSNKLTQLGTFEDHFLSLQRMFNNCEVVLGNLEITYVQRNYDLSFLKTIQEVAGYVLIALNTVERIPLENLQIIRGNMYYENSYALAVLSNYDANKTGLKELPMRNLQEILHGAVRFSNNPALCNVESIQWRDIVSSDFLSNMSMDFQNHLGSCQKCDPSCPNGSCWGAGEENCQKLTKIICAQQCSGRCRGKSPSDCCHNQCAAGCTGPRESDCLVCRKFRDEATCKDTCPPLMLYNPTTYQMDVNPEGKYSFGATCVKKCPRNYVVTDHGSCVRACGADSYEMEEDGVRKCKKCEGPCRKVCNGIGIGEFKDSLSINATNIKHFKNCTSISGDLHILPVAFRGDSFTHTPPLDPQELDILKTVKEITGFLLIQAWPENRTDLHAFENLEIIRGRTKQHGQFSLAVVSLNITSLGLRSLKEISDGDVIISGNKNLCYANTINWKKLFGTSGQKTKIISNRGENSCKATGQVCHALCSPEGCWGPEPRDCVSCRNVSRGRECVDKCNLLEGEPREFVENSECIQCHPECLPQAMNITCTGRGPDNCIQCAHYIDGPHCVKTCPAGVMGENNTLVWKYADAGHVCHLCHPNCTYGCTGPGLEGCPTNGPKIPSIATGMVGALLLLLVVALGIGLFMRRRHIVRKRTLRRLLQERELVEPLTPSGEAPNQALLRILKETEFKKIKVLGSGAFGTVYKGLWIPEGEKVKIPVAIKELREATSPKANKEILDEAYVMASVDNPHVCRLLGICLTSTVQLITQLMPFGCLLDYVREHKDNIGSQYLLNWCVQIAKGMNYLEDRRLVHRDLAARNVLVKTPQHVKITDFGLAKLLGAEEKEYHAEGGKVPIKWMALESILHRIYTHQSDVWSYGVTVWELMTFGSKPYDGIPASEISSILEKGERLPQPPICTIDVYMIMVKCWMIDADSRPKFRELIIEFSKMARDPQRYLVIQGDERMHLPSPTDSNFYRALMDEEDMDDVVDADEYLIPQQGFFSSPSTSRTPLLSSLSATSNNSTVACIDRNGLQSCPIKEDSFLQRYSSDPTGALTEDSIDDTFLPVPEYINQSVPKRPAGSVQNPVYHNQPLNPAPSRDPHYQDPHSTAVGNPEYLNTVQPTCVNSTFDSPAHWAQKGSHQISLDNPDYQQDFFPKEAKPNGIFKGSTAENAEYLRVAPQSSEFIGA

Take `O=C1CCC(N2C(=O)c3ccc(OCCOCCOCCOCCCc4cccc5c4C(=O)N(C(C(=O)Nc4nccs4)c4cc(F)ccc4O)C5)cc3C2=O)C(=O)N1` (stereo not drawn) [Example 283, 2-(7-(3-(2-(2-(2-((2-(2,6-dioxopiperidin-3-yl)-1,3-dioxoisoindolin-5-yl)oxy)ethoxy)ethoxy)ethoxy)propyl)-1-oxoisoindolin-2-yl)-2-(5-fluoro-2-hydroxyphenyl)-N-(thiazol-2-yl)acetamide]: the pIC50 in experiment [1] is 5.92; in experiment [2], 6.09; in experiment [3] it was 5.55; in experiment [5], 5.34. The “EGFR protein remaining, EGFR L858R/T790M/C797S triple mutant” value (shortened to “EGFR protein remaining”) in experiment [4] was “C (>80% EGFR protein remaining after 72 hours of incubation with the test compound at a concentration of 300 nM)”.
As to `Cc1ncsc1-c1ccc([C@H](C)NC(=O)[C@H]2C[C@H](O)CN2C(=O)[C@@H](NC(=O)COCCOCCOCCOCCOCCOc2ccc(-c3nccc(Nc4cc5c(cn4)nc(C)n5C(C)C)n3)cc2)C(C)(C)C)cc1` [compound 280], the negative logarithm of the IC50 (pIC50) in experiment [1], in experiment [2], in experiment [3] and in experiment [5] was < 4.52 in each case. Moreover, the “EGFR protein remaining” value in experiment [4] is “C (>80% EGFR protein remaining after 72 hours of incubation with the test compound at a concentration of 300 nM)”.
Take `Cc1ncsc1-c1ccc([C@H](C)NC(=O)[C@H]2C[C@H](O)CN2C(=O)[C@@H](NC(=O)COCCOCCOCCOCCOC2CCN(c3nccc(Nc4cc5c(cn4)nc(C)n5C(C)C)n3)CC2)C(C)(C)C)cc1` [compound 284]: the pIC50 in experiment [1] was 4.85; in experiment [2] it was 4.92; in experiment [3], < 4.52; in experiment [5] it was 4.52. Further, the “EGFR protein remaining” value in experiment [4] is given as “C (>80% EGFR protein remaining after 72 hours of incubation with the test compound at a concentration of 300 nM)”.
`O=C1CCC(N2C(=O)c3ccc(N4CCC(CN5CCC(OCC#Cc6cccc7c6C(=O)N(C(C(=O)Nc6nccs6)c6cc(F)ccc6O)C7)CC5)CC4)cc3C2=O)C(=O)N1` (stereo not drawn) [compound 290]: the pIC50 in experiment [1] was 5.96; in experiment [2], 6.85; in experiment [3], 5.57. In addition, the “EGFR protein remaining” value in experiment [4] is “B (≤80% and >50% EGFR protein remaining after 72 hours of incubation with the test compound at a concentration between 300 nM and 10 nM)”.
For the molecule `O=C1CCC(N2C(=O)c3ccc(N4CCN(CC5CCN(CCCc6cccc7c6C(=O)N(C(C(=O)Nc6nccs6)c6cc(F)ccc6O)C7)CC5)CC4)cc3C2=O)C(=O)N1` (stereo not drawn) [compound 294], the pIC50 in experiment [1] is 5.46; in experiment [2], 6.77; in experiment [3], 6.09. In addition, the “EGFR protein remaining” value in experiment [4] is reported as “C (>80% EGFR protein remaining after 72 hours of incubation with the test compound at a concentration of 300 nM)”.
On the same counts, the results for `O=C1CCC(N2C(=O)c3cccc(NCCOCCOCCOCCOCCOCCOCC#Cc4cccc5c4C(=O)N(C(C(=O)Nc4nccs4)c4cc(F)ccc4O)C5)c3C2=O)C(=O)N1` (stereo not drawn) [compound 295] are 4.47, 6.15, 5.51 and “C (>80% EGFR protein remaining after 72 hours of incubation with the test compound at a concentration of 300 nM)”.
Take `O=C1CCC(N2C(=O)c3ccc(N4CCC(CN5CCC(OCCCc6cccc7c6C(=O)N(C(C(=O)Nc6nccs6)c6cc(F)ccc6O)C7)CC5)CC4)cc3C2=O)C(=O)N1` (stereo not drawn) [compound 297]: the pIC50 was 5.74 in experiment [1], 6.51 in experiment [2] and 5.74 in experiment [3]. In addition, the “EGFR protein remaining” value in experiment [4] was “B (≤80% and >50% EGFR protein remaining after 72 hours of incubation with the test compound at a concentration between 300 nM and 10 nM)”.
Turning to `O=C1CCC(N2C(=O)c3ccc(N4CCC(CN5CCC(OC/C=C/c6cccc7c6C(=O)N(C(C(=O)Nc6nccs6)c6cc(F)ccc6O)C7)CC5)CC4)cc3C2=O)C(=O)N1` (stereo not drawn) [compound 298], the pIC50 was 5.80 in experiment [1], 6.27 in experiment [2] and 5.85 in experiment [3]. Also, the “EGFR protein remaining” value in experiment [4] was “C (>80% EGFR protein remaining after 72 hours of incubation with the test compound at a concentration of 300 nM)”.
`Cc1ncsc1-c1ccc([C@H](C)NC(=O)[C@@H]2C[C@@H](O)CN2C(=O)[C@@H](NC(=O)COCCOCCOCCOCCOCCOCCOCC#Cc2cccc3c2C(=O)N(C(C(=O)Nc2nccs2)c2cc(F)ccc2O)C3)C(C)(C)C)cc1` (stereo partly drawn) [compound 299]: the figures for the pIC50 in experiment [1], in experiment [2] and in experiment [3] were 6.62, 6.70 and 5.34, respectively. Further, the “EGFR protein remaining” value in experiment [4] was “C (>80% EGFR protein remaining after 72 hours of incubation with the test compound at a concentration of 300 nM)”.
In the case of `O=C1CCC(N2C(=O)c3cccc(NCCOCCOCCOCCOCCOCCOCCCc4cccc5c4C(=O)N(C(C(=O)Nc4nccs4)c4cc(F)ccc4O)C5)c3C2=O)C(=O)N1` (stereo not drawn) [compound 300], the results for the pIC50 in experiment [1], in experiment [2] and in experiment [3] were 5.57, 5.51 and 4.70, respectively. Besides, the “EGFR protein remaining” value in experiment [4] is “C (>80% EGFR protein remaining after 72 hours of incubation with the test compound at a concentration of 300 nM)”.
In the case of `COC1CCN(c2nccc(Nc3cc4c(cn3)nc(COCCN3CCN(c5ccc(OCCCOCC(=O)N[C@H](C(=O)N6C[C@H](O)C[C@H]6C(=O)NCc6ccc(-c7scnc7C)cc6)C(C)(C)C)cc5)CC3)n4C(C)C)n2)CC1` [compound 303], the pIC50 in experiment [1] is < 4.52; in experiment [2], 6.60; in experiment [3], 6.26. Also, the “EGFR protein remaining” value in experiment [4] is “A (≤50% EGFR protein remaining after 72 hours of incubation with the test compound at a concentration between 300 nM and 10 nM)”.
Consider `CC(C)n1c(COCCN2CCN(c3ccc(OCCCN4CCN(c5ccc6c(c5)C(=O)N(C5CCC(=O)NC5=O)C6=O)CC4)cc3)CC2)nc2cnc(Nc3ccnc(-c4cnn(S(=O)(=O)C5CC5)c4)n3)cc21` (stereo not drawn) [compound 305], for which the pIC50 in experiment [1] is 5.68; in experiment [2], 8.89; in experiment [3] it was 8.01. The “EGFR protein remaining” value in experiment [4] is listed as “C (>80% EGFR protein remaining after 72 hours of incubation with the test compound at a concentration of 300 nM)”.
